Like-named read-outs stand apart in the source and are kept apart here.
Tests used:
[1] = test system: HTLV-IIIB strain of HIV-1; test: Human T-Cell Culture Assay (syncytia formation in c8166 cells); assay type: cell-based; settings: Human immunodeficiency virus 1, IIIB, 96 h, syncytia four days after virus challenge
Method: In order to confirm that compounds which are active in the RT Assay also have the ability to inhibit HIV-1 replication in a living system, several compounds of formula I were also tested in the Human T-Cell Culture Assay described below.
Formation of syncytia is a feature of in vitro cultures of CD4+ T-cells infected with HIV-1. In this assay, T-cells are treated with a putative replication inhibiting compound and then infected with HIV-1. After incubation the culture is checked for the formation of syncytia. The absence or reduction is the number of syncytia is used as a measure of the test compound's ability to inhibit HIV replication.
The target cells, designated c8166, are a subclone of human lymphoma cells of T-cell origin and are established at an initial density of 5x10^4 per 100 ul in RPMI 1640 (+ 10% fetal bovine serum) culture medium in 96 well flat bottom plates. A selected amount of test compound, dissolved in DMSO is included. After 24 hours, 50-100 TCID50's (the dose that results in induced effect in 50% of test cultures) of the HTLV-IIIB strain of HIV-1 (2) are innoculated into each culture. Control cultures receive compound or virus only. Four days after virus challenge, cultures are visually examined for the frequency and distribution of virus-induced giant cell syncytia. The percent inhibition by the test compound is determined by comparison with control values. Confirmation of the presence or absence of virus replication is accomplished by harvesting the cell free culture fluids from all experimental groups to determine the present or absence of infectious progeny through the induction of syncytia formation in secondary human T-cell cultures after 3 days.

[2] = MTT Assay for Cellular Cytotoxicity; assay type: cell-based, human; settings: human, H9 cells, five days incubation, read-out: Cytotoxity Assay (EC50)
Method: (§1) In order to roughly assess the cytotoxicity of the compounds of formula 1, several such compounds were tested in the MTT Cellular Cytotoxicity Assay described below.
(§2) The MTT [3-(4,5-dimethylthiazol-2yl)-2,5-diphenyl tetrazolium bromide) assay is based on cleavage of tetrazolium bromide by metabolically active cells, resulting in a highly quantitative blue color. This assay has been previously described (1) but has been optimized for the purposes of the testing reported herein.
(§3) Cells (100µl) are plated in microtest plate wells at a concentration of 10^5 cells per ml in the presence of varying concentrations of inhibitor. The cells are incubated at 37°C in a humidified CO2 incubator. […] After 4 hours additional incubation at 37°C, 60µl of Triton-X is added to each well and thoroughly mixed to aid the solubilization of the crystals. Absolute ethanol (5µl) is added to each well and the resulting mixture is incubated for 30 minutes at 60°C and immediately read on a plate reader (Dynatech) at a wavelength of 570nm.
(§4) Data from this assay are used to generate a nonlinear regression analysis, which yields the EC50.

HIV-1 RT = target: T1, HIV-1 RT (Human immunodeficiency virus type 1 group M subtype B, UniProt P03367); test: Reverse Transcriptase (RT) Assay: inhibition of RNA-dependent DNA polymerase activity; assay type: biochemical; settings: for inhibition at 10 µg/mL: read-out: RT Inhibition % @ 10µg/ml
T1 construct: Reverse transcriptase enzyme from the LAV strain of Human Immunodeficiency Virus (HIV-1) (1) was isolated from the bacterial strain JM109; made in house; host or cells: E. coli JM109, clone pBRTprt1+ in vector pIBI21, lac promoter, IPTG induction
Text: Utilizing the Reverse Transcriptase (RT) Assay descibed below, compounds can be tested for their ability to inhibit the RNA-dependent DNA polymerase activity of HIV-1 RT. Certain specific compounds of formula I described in the Examples which appear below, were so tested. The above-described compounds of formula IA were also so tested.
Among the enzymes for which Human Immunodeficiency Virus (HIV-1) encodes is a reverse transcriptase (1), so-named because it transcribes a DNA copy from an RNA template. This activity can be quantitatively measured in a cell-free enzyme assay which has been previously described (2), and is based upon the observation that reverse transcriptase is able to use a synthetic template [poly r(C) primed with oligo d(G)] to transcribe a radio-labelled, acid-precipitable DNA strand utilizing ^3H-dGTP as a substrate.
Reverse transcriptase enzyme from the LAV strain of Human Immunodeficiency Virus (HIV-1) (1) was isolated from the bacterial strain JM109 (3) expressing the DNA clone pBRTprt1+ (2) which is under the control of the lac promoter in the expression vector pIBI21 (4). An overnight culture grown in 2XYT medium (37°C, 225 rpm) (5) supplemented with 100 µg/ml ampicillin for positive selection is inoculated at a 1:40 dilution into M9 medium supplemented with 10µg/ml thiamine, 0.5% casamino acids, and 50 µg/ml ampicillin (5). The culture is incubated (37°C, 225 rpm) until it reaches an OD540 of 0.3-0.4. At that time the repressor inhibitor IPTG (isopropyl b-D-thiogalactopyranoside) is added to 0.5mM and the mixture is incubated for 2 additional hours. Bacteria are pelleted, resuspended in a 50mM Tris, 0.6mM EDTA, 0.375M NaCl buffer and digested by the addition of lysozyme (1mg/ml) for 30 minutes on ice. The cells are lysed by the addition of 0.2% NP-40 and brought to 1M NaCl.
After removal of the insoluble debris by centrifugation, the protein is precipitated by the addition of 3 volumes of water-saturated ammonium sulfate. The enzyme is pelleted, resuspended in RT buffer (50mM Tris pH 7.5. 1mM EDTA, 5mM DTT, 0.1% NP-40, 0.1M NaCl, and 50% glycerol), and stored at -70°C for further use.
The 2X concentrated stock reaction mixture is aliquoted and stored at -20°C. The mixture is stable and thawed for use in each assay. This enzyme assay has been adapted to a 96 well microtiter plate system, and has been previously described (6). Tris buffer (50 mM, pH 7.4), vehicle (solvent diluted to match the compound dilution), or compounds in vehicle are dispensed into 96-well microtiter plates (10µl/well: 3 wells/compound). The HIV-1 RT enzyme is thawed and diluted in 50mM Tris pH 7.4 so that fifteen µl of diluted enzyme contain 0.001 Unit (one unit is that amount of enzyme to transform 1 micromole of substrate per minute at 25°C) and 15µl are dispensed per well. Twenty µl of 0.12 - 0.5M EDTA are added to the first three wells of the microtiter plate. EDTA chelates the Mg^++ present and prevents reverse transcription. This group serves as background polymerization which is subtracted from all other groups. Twenty-five ul of the 2X reaction mixture are added to all wells and the assay is allowed to incubate at room temperature for 60 minutes. The assay is terminated by precipitating the DNA in each well with 50µl of trichloracetic acid (TCA) (10% w/v) in sodium pyrophosphate (1% w/v). The microtiter plate is incubated for 15 minutes at 4°C and the precipitate is fixed onto #30 glass fiber paper (Schleicher & Schuell) using a Skatron semi-automatic harvester. The filters are then washed with additional TCA (5%) containing sodium pyrophosphate (1%), rinsed with aqueous ethanol (70%), dried, and transferred to scintillation vials (6). Each vial receives 2 mls of scintillation cocktail and is counted in a Beckman beta counter. […]

H9 cell line = test: MTT Assay for Cellular Cytotoxicity; assay type: cell-based, human; settings: H9 cells, five days incubation, unit inferred, 7200 min, read-out: Cytotoxity Assay (EC50)
Method: as §1, §2, §3, §4

[3] = 10µg/ml, Table I, compounds of formula I

Row | Compound | inhibition at 10 µg/mL (HIV-1 RT; [3]) [%] | CC50 at 120 h [2] [µM] | further results
1 | CN1C(=O)c2cccnc2N(C)c2ccc(Cl)cc21 [Example 8, 8-Chloro-6,11-dihydro-6,11-dimethyl-5H-pyrido[2,3-b][1,5]benzodiazepin-5-one] | 55 | 37 | –
2 | CCN1c2ccccc2N(C)C(=S)c2cccnc21 [Example 22, 6,11-Dihydro-11-ethyl-6-methyl-5H-pyrido[2,3-b][1,5]benzodiazepin-5-thione] | – | – | inhibition at 3 µM ([1]; @3µM): 100%; inhibition at 10 µg/mL (HIV-1 RT): 100%
3 | CN1C(=O)c2cccnc2N(C)c2cc(C(F)(F)F)ccc21 [Example 4, 6,11-Dihydro-6,11-dimethyl-9-(trifluoromethyl)-5H-pyrido[2,3-b][1,5]benzodiazepin-5-one] | 79 | 49 | –
4 | Mixture of 6,11-Dihydro-2,4,6,8,11-and 6,11-dihydro-2,4,6,9,11- pentamethyl-5H-pyrido[2,3-b][1,5]benzodiazepin-5-one [Example 17] | – | – | CC50 (H9 cell line): 9 µM; RT Inhibition % @ 10µg/ml (HIV-1 RT; [3]): 49%

Second part, led by results:

Row | inhibition at 10 µg/mL (HIV-1 RT; [3]) [%] | Compound | CC50 at 120 h [2] [µM] | further results
5 | 94 | CC(C)N1c2ccccc2N(C)C(=O)c2cccnc21 [Example 5, 6,11-Dihydro-6-methyl-11-methylethyl-5H-pyrido[2,3-b][1,5]benzodiazepin-5-one] | 50 | inhibition at 19 µM ([1]; @19µM): 100%
6 | 90 | CC(=O)N1c2cc(C)c(C)cc2N(C)C(=O)c2cccnc21 [Example 19, 11-Acetyl-6,11-dihydro-6,8,9-trimethyl-5H-pyrido[2,3-b][1,5]benzodiazepin-5-one] | – | CC50 at 120 h ([2]; unit inferred): 85 µM
7 | 97 | CCN1c2ccccc2N(C)C(=O)c2cccnc21 [Example 2, 6,11-Dihydro-11-ethyl-6-methyl-5H-pyrido[2,3-b][1,5]benzodiazepin-5-one] | 80 | inhibition at 4 µM ([1]; @ 4µM): 100%
8 | 39 | Cc1ccc2c(n1)N(C)c1cc(C)c(C)cc1N(C)C2=O [Example 15, 6,11-Dihydro-2,6,8,9,11-pentamethyl-5H-pyrido[2,3-b][1,5]benzodiazepin-5-one] | – | CC50 at 120 h ([2]; unit inferred): 18 µM
9 | 92 | Cc1cc2c(cc1C)N(C)c1ncccc1C(=O)N2C [Example 9, 6,11-Dihydro-6,8,9,11-tetramethyl-5H-pyrido[2,3-b][1,5]-benzodiazepin-5-one] | 4 | –
